The first assay relates to IL-4 stimulated expression of CD23 in human Ramos B cells (JAK-1 and JAK-3). The assay can be described thus: Assay for Ramos B-Cell Line Stimulated with IL-4 (CD23 upregulation, FACS). It counts as cell-based. To be noted: Homo sapiens, Ramos, Ramos B cells stimulated with IL-4, CD23 expression by FACS; read-out: IC50, Example 41. In outline: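 Human Ramos B cells (5×10^4 per point, RPMI 5% serum) pre-incubated 1 h at 37 °C with compound or DMSO, then stimulated with IL-4 at 50 units/mL final for 20-24 h. CD23 upregulation measured by anti-CD23-PE staining and flow cytometry; IC50 derived.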
Background: A flow cytometer gives signals particle by particle.
Usually IC50 stands for the concentration needed to halve the response being measured. Take `CCNC(=O)NCc1ccc(Nc2nc(Nc3ccc(S(N)(=O)=O)cc3)ncc2F)cc1` [III-119, N2-(4-Aminosulfonylphenyl)-N4-(4-ethylaminocarbonylaminomethylphenyl]-5-fluoro-2,4-pyrimidinediamine]: the IC50 came to 1300 nM.

On to `NS(=O)(=O)c1ccc(Nc2ncc(F)c(Nc3cccc(-c4cnco4)c3)n2)cc1` [IV-3, N2-(4-Aminosulfonylphenyl)-5-fluoro-N4-[3-(1,3-oxazol-5-yl)phenyl]-2,4-pyrimidinediamine], for which the IC50 amounted to 93.2 nM.

For the compound `C#CCn1ccc2ccc(Nc3nc(Nc4ccc(C)c(S(N)(=O)=O)c4)ncc3F)cc21` [IX-3, N2-(3-Aminosulfonyl-4-methylphenyl)-5-fluoro-N4-[1-(propyn-3-yl)indol-6-yl]-2,4-pyrimidinediamine], the IC50 is 115 nM.

Turning to `C#CCn1ccc2ccc(Nc3nc(Nc4cccc(S(N)(=O)=O)c4)ncc3F)cc21` [IX-4, N2-(3-Aminosulfonylphenyl)-5-fluoro-N4-[1-(propyn-3-yl)indol-6-yl]-2,4-pyrimidinediamine], the concentration for half-maximal inhibition (IC50) worked out at 120 nM.

For `Cc1ccc(Nc2ncc(F)c(Nc3ccc4c(C(N)=O)c[nH]c4c3)n2)cc1S(N)(=O)=O` [IX-9, N4-[3-(Aminocarbonyl)-1H-indol-6-yl]-N2-(3-aminosulfonyl-4-methylphenyl)-5-fluoro-2,4-pyrimidinediamine], the half-maximal inhibitory concentration (IC50) was 8880 nM.

With `NC(=O)c1c[nH]c2cc(Nc3nc(Nc4ccc(Cl)c(S(N)(=O)=O)c4)ncc3F)ccc12` [IX-10, N4-[3-(Aminocarbonyl)-1H-indol-6-yl]-N2-(3-aminosulfonyl-4-chlorophenyl)-5-fluoro-2,4-pyrimidinediamine], the half-maximal inhibitory concentration (IC50) came out at 6410 nM.

As to `NS(=O)(=O)c1ccc(Nc2ncc(F)c(Nc3ccc(C(=O)N4CCSCC4)cc3)n2)cc1` [IX-36, N2-(4-Aminosulfonylphenyl)-5-fluoro-N4-[4-(4-thiomorpholinyl)carbonylphenyl]-2,4-pyrimidinediamine], the IC50 came to 1040 nM.

Regarding `NS(=O)(=O)c1cccc(Nc2ncc(F)c(Nc3ccc(C(=O)N4CCS(=O)(=O)CC4)cc3)n2)c1` [IX-37, N2-(3-Aminosulfonylphenyl)-N4-[4-(1,1-dioxo-4-thiomorpholinyl)carbonylphenyl]-5-fluoro-2,4-pyrimidinediamine], the IC50 amounted to 3700 nM.

Turning to `Cc1ccc(Nc2ncc(F)c(Nc3ccc(C(=O)N4CCS(=O)(=O)CC4)cc3)n2)cc1S(N)(=O)=O` [IX-38, N2-(3-Aminosulfonyl-4-methylphenyl)-N4-[4-(1,1-dioxo-4-thiomorpholinyl)carbonylphenyl]-5-fluoro-2,4-pyrimidinediamine], the half-inhibitory concentration (IC50) was 2310 nM.

In the case of `Cc1ccc(Nc2ncc(F)c(N[C@@H]3CCN(C(=O)CC#N)C3)n2)cc1S(N)(=O)=O` [IX-45, N2-(3-Aminosulfonyl-4-methylphenyl)-N4-[(4R)-1-(2-cyanoacetyl)-pyrrolidin-4-yl)-5-fluoro-2,4-pyrimidinediamine], the half-maximal inhibitory concentration (IC50) was determined as 3620 nM.

Take `CNS(=O)(=O)c1ccc(Nc2ncc(F)c(Nc3ccc(OC)c(OC)c3)n2)cc1OC` [IX-50, N4-(3,4-Dimethoxyphenyl)-5-fluoro-N2-[4-(N-methyl)aminosulfonyl-3-methoxyphenyl]-2,4-pyrimidinediamine]: the IC50 worked out at 179 nM.

`CNS(=O)(=O)c1ccc(Nc2ncc(F)c(Nc3cc(OC)cc(OC)c3)n2)cc1OC` [IX-51, N4-(3,5-Dimethoxyphenyl)-5-fluoro-N2-[4-(N-methyl)aminosulfonyl-3-methoxyphenyl]-2,4-pyrimidinediamine]: the half-inhibitory concentration (IC50) was determined as 240 nM.

For the compound `CNS(=O)(=O)c1ccc(Nc2ncc(F)c(Nc3ccc(Cl)c(C(F)(F)F)c3)n2)cc1OC` [IX-52, N4-(4-Chloro-3-trifluoromethylphenyl)-5-fluoro-N2-[4-(N-methyl)aminosulfonyl-3-methoxyphenyl]-2,4-pyrimidinediamine], the half-maximal inhibitory concentration (IC50) worked out at 117 nM.

Turning to `CNS(=O)(=O)c1ccc(Nc2ncc(F)c(Nc3ccc(OC(F)(F)F)c(Cl)c3)n2)cc1OC` [IX-53, N4-(3-Chloro-4-trifluoromethoxyphenyl)-5-fluoro-N2-[4-(N-methyl)aminosulfonyl-3-methoxyphenyl]-2,4-pyrimidinediamine], the concentration for half-maximal inhibition (IC50) was 240 nM.

As to `CNS(=O)(=O)c1ccc(Nc2ncc(F)c(Nc3cccc(O)c3)n2)cc1OC` [VI-1, 5-Fluoro-N4-(3-hydroxyphenyl)-N2-[4-(N-methyl)aminosulfonyl-3-methoxyphenyl]-2,4-pyrimidinediamine], the IC50 amounted to 205 nM.

The assay is the same for the next values; noted with them: Ramos B cells stimulated with IL-4, CD23 expression by FACS; read-out: IC50, Example 41.
For `CNS(=O)(=O)c1cc(Nc2ncc(F)c(NCCc3ccc(-n4ccnc4)cc3)n2)ccc1C` [III-89, 5-Fluoro-N2-[3-(N-methylaminosulfony)-4-methylphenyl]-N4-[4-(1-imidazolyl)phenethyl]-2,4-pyrimidinediamine], the 50% inhibitory concentration (IC50) was determined as 115 nM.

On to `COc1ccc(Nc2ncc(F)c(Nc3ccc(CN4CCOCC4)cc3)n2)cc1S(N)(=O)=O` [III-105, N2-(3-Aminosulfonyl-4-methyleneoxyphenyl)-5-fluoro-N4-(4-N-morpholinomethylenephenyl)-2,4-pyrimidinediamine], for which the concentration for half-maximal inhibition (IC50) worked out at 1280 nM.

Consider `COc1ccc(Nc2ncc(F)c(Nc3ccc(CN4CCS(=O)(=O)CC4)cc3)n2)cc1S(N)(=O)=O` [III-112, N2-(3-Aminosulfonyl-4-methyloxyphenyl)-5-fluoro-N4-{4-[(1,1-dioxothiomorpholin-4-yl-)methyl]phenyl}-2,4-pyrimidinediamine], for which the IC50 was 2480 nM.

As to `NC(=O)NCc1cccc(Nc2nc(Nc3cccc(S(N)(=O)=O)c3)ncc2F)c1` [III-114, N4-(3-aminocarbonylaminomethyl)phenyl-N2-(3-aminosulfonyl)phenyl-5-fluoro-2,4-pyrimidinediamine], the half-maximal inhibitory concentration (IC50) is 2680 nM.

On to `Cc1ccc(Nc2ncc(F)c(Nc3cccc(CNC(N)=O)c3)n2)cc1S(N)(=O)=O` [III-115, N4-(3-aminocarbonylaminomethyl)phenyl-N2-(3-aminosulfonyl-4-methyl)phenyl-5-fluoro-2,4-pyrimidinediamine], for which the concentration for half-maximal inhibition (IC50) amounted to 1650 nM.

Take `CCNC(=O)NCc1cccc(Nc2nc(Nc3cccc(S(N)(=O)=O)c3)ncc2F)c1` [III-117, N2-(3-aminosulfonyl)phenyl-N4-(3-ethylaminocarbonylaminomethyl)phenyl-5-fluoro-2,4-pyrimidinediamine]: the 50% inhibitory concentration (IC50) came to 397 nM.

For the compound `CCNC(=O)NCCc1ccc(Nc2nc(Nc3ccc(S(N)(=O)=O)cc3)ncc2F)cc1` [III-122, N2-(4-aminosulfonyl)phenyl-N4-[4-(2-ethylaminocarbonylamino)ethyl]phenyl-5-fluoro-2,4-pyrimidinediamine], the half-maximal inhibitory concentration (IC50) is 539 nM.

On to `CCNC(=O)NCCc1ccc(Nc2nc(Nc3ccc(C)c(S(N)(=O)=O)c3)ncc2F)cc1` [III-124, N2-(3-aminosulfonyl-4-methyl)phenyl-N4-[4-(2-ethylaminocarbonylamino)ethyl]phenyl-5-fluoro-2,4-pyrimidinediamine], for which the IC50 is 295 nM.

On to `CCCN(Cc1ccc(Nc2nc(Nc3ccc(S(N)(=O)=O)cc3)ncc2F)cc1)C(N)=O` [III-125, N2-(4-aminosulfonyl)phenyl-N4-[4-(N-carbamoyl-N-propyl)aminomethyl]phenyl-5-fluoro-2,4-pyrimidinediamine], for which the half-maximal inhibitory concentration (IC50) was 836 nM.

As for `CNS(=O)(=O)c1cccc(Nc2nc(Nc3cccc(S(N)(=O)=O)c3)ncc2F)c1` [IV-11, N2-(3-Aminosulfonylhenyl)-5-fluoro-N4-[3-(N-methylaminosulfonyl)phenyl]-2,4-pyrimidinediamine], the IC50 turned out to be 367 nM.

For `CC(=O)N1CCN(C(=O)c2ccc(Nc3nc(Nc4cccc(S(N)(=O)=O)c4)ncc3F)cc2)CC1` [IX-23, N4-[4-(1-Acetyl-4-piperizinyl)carbonylphenyl]-N2-(3-Aminosulfonylphenyl)-5-fluoro-2,4-pyrimidinediamine], the IC50 was 9580 nM.

With `CNS(=O)(=O)c1cc(Nc2ncc(F)c(Nc3ccc(C(=O)N4CCN(C(C)=O)CC4)cc3)n2)ccc1C` [IX-25, N4-[4-(1-Acetyl-4-piperizinyl)carbonylphenyl]-5-fluoro-N2-[3-(N-methylaminosulfony)-4-methylphenyl]-2,4-pyrimidinediamine], the concentration for half-maximal inhibition (IC50) was determined as 6310 nM.

As for `CS(=O)(=O)N1CCN(C(=O)c2ccc(Nc3nc(Nc4cccc(S(N)(=O)=O)c4)ncc3F)cc2)CC1` [IX-29, N2-(3-Aminosulfonylphenyl)-5-fluoro-N4-[4-(1-methanesulfonyl-4-piperizinyl)carbonylphenyl]-2,4-pyrimidinediamine], the IC50 stood at 3460 nM.

In the case of `CNS(=O)(=O)c1cc(Nc2ncc(F)c(Nc3ccc(C(=O)N4CCN(S(C)(=O)=O)CC4)cc3)n2)ccc1C` [IX-31, 5-Fluoro-N2-[3-(N-methylaminosulfony)-4-methylphenyl]-5-fluoro-N4-[4-(1-methanesulfonyl-4-piperizinyl)carbonylphenyl]-2,4-pyrimidinediamine], the IC50 is 1400 nM.

For `CNS(=O)(=O)c1cc(Nc2ncc(F)c(Nc3ccc(C(=O)N4CCSCC4)cc3)n2)ccc1C` [IX-33, 5-Fluoro-N2-[3-(N-methylaminosulfony)-4-methylphenyl]-5-fluoro-N4-[4-(4-thiomorpholino)carbonylphenyl]-2,4-pyrimidinediamine], the IC50 was found to be 521 nM.

With `CNS(=O)(=O)c1cc(Nc2ncc(F)c(Nc3ccc(C(=O)N4CCS(=O)(=O)CC4)cc3)n2)ccc1C` [IX-39, N4-[4-(1,1-dioxo-4-thiomorpholinyl)carbonylphenyl]-5-Fluoro-N2-[3-(N-methylaminosulfony)-4-methylphenyl]-2,4-pyrimidinediamine], the IC50 was found to be 1400 nM.

As to `COC(=O)CNS(=O)(=O)c1cccc(Nc2ncc(F)c(Nc3ccc(OC)c(Cl)c3)n2)c1` [VI-7, N4-(3-Chloro-4-methoxyphenyl)-5-fluoro-N2-[3-(N-methoxycarbonylmethylene)aminosulfonylphenyl]-2,4-pyrimidinediamine], the IC50 is 766 nM.

The record behind these values is patent US11827628B2, “Compositions and methods for inhibition of the JAK pathway” (Rigel Pharmaceuticals, Inc., priority 2005, dated 2023).
